Measurements taken from patent US9896435B2, “N-pyrrolidinyl,N′-pyrazolyl-urea, thiourea, guanidine and cyanoguanidine compounds as TrkA kinase inhibitors” (Array BioPharma Inc., priority 2012, dated 2018).
pIC50: −log10 of the molar value.

How the values were obtained:
[1] = molecular target: His-tagged recombinant human TrkA (Homo sapiens (Human), UniProt P04629); experiment: TrkA LanthaScreen Eu Kinase Binding Assay; details: averaged IC50; LanthaScreen binding assay of Example A; read-out: TrkA Enzyme IC50
Procedure: TrkA binding activity was determined in a TrkA LanthaScreen™ Eu Kinase Binding Assay. 5 nM His-tagged recombinant human TrkA (6HIS tagged cytoplasmic domain from Invitrogen, Catalog No. PV3144) was incubated with 4 nM Alexa-Fluor® Tracer 236 (Invitrogen Cat. No. PV5592), 2 nM biotinylated anti-His (Invitrogen Cat. No. PV6090), and 2 nM europium-labeled Streptavidin (Invitrogen Cat. No. PV5899), in buffer (25 mM MOPS, pH 7.5, 5 mM MgCl2, 0.005% Triton X-100). Three fold serial dilutions of compounds of the invention in DMSO were added to a final percentage of 2% DMSO. After 60-minute incubation at 22° C., the reaction was measured using the EnVision mutlimode plate reader (PerkinElmer) via TR-FRET dual wavelength detection at […]. The percent of control was calculated using a ratiometric emission factor. The IC50 values were determined by fitting a four parameter model to the percent of control data.
Table A provides averaged IC50 values for compounds of the invention when tested in the assay of Example A, where A represents an averaged IC50 value<100 nM.

PKCzeta = PKCzeta (Homo sapiens (Human), UniProt Q05513); experiment: KinaseProfiler off-target kinase profiling; format: biochemical; details: 10 μM, ATP near Km
Procedure: (§1) Two representative compounds (Example 2, 14) of the invention were tested for off-target kinase activity at a concentration of 10 μM by Millipore, Inc. in their KinaseProfiler™ service against all the kinases available in their full kinase panel. These compounds were run in duplicate at a concentration of ATP near the Km for each individual kinase according to Millipore's specifications. The results are shown in Table B. Data are reported as percent of control (POC) and are the average of the two replicates.

HIPK2 = HIPK2 (Homo sapiens (Human), UniProt Q9H2X6); experiment: KinaseProfiler off-target kinase profiling; format: biochemical; details: 10 μM, ATP near Km
Sequence of HIPK2 (Q9H2X6 whole entry): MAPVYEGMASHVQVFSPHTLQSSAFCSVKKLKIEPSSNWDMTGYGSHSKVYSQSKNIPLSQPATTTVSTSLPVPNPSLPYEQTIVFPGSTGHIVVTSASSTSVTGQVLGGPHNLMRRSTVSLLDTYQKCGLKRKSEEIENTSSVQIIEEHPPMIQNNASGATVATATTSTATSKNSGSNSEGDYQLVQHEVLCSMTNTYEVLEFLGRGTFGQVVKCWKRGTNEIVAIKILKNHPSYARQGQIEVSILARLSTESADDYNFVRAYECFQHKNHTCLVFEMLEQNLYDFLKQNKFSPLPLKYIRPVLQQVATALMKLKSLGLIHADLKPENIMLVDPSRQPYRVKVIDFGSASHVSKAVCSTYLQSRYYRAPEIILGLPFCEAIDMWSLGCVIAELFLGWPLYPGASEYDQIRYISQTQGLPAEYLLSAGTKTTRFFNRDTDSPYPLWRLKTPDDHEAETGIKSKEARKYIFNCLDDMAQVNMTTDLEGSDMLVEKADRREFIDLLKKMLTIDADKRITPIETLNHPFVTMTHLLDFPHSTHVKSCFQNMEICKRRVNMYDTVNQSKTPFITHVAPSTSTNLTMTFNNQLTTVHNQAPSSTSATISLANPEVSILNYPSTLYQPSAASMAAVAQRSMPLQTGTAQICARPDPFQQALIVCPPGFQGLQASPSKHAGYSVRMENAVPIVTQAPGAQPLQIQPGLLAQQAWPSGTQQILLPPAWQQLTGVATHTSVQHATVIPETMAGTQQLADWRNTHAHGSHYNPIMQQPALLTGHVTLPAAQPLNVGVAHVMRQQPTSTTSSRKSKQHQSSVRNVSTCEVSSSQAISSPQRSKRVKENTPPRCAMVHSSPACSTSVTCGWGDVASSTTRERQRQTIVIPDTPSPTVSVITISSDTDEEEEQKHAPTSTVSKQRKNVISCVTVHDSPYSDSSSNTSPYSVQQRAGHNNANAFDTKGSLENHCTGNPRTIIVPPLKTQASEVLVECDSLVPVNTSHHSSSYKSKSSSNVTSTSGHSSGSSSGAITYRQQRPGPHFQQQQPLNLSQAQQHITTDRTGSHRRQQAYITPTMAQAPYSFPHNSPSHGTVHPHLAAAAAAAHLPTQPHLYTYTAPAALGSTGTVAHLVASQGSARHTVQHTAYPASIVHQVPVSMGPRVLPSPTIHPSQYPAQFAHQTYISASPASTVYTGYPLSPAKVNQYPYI
Procedure: as §1

NEK11 = NEK11 (Homo sapiens (Human), UniProt Q8NG66); experiment: KinaseProfiler off-target kinase profiling; format: biochemical; details: 10 μM, ATP near Km
Procedure: as §1

GSK3beta = GSK3beta (Homo sapiens (Human), UniProt P49841); experiment: KinaseProfiler off-target kinase profiling; format: biochemical; details: 10 μM, ATP near Km
Procedure: as §1

MYLK = MYLK (Homo sapiens (Human), UniProt Q15746); experiment: KinaseProfiler off-target kinase profiling; format: biochemical; details: 10 μM, ATP near Km
Procedure: as §1

Lck = Lck (Homo sapiens (Human), UniProt P06239); experiment: KinaseProfiler off-target kinase profiling; format: biochemical; details: 10 μM, ATP near Km
Procedure: as §1

MARK2 = MARK2 (Homo sapiens (Human), UniProt Q7KZI7); experiment: KinaseProfiler off-target kinase profiling; format: biochemical; details: 10 μM, ATP near Km
Procedure: as §1

FGFR4 = FGFR4 (Homo sapiens (Human), UniProt P22455); experiment: KinaseProfiler off-target kinase profiling; format: biochemical; details: 10 μM, ATP near Km
Procedure: as §1

ITK = ITK (Homo sapiens (Human), UniProt Q08881); experiment: KinaseProfiler off-target kinase profiling; format: biochemical; details: 10 μM, ATP near Km
Procedure: as §1

PKCbetaI = PKCbetaI (Homo sapiens (Human), UniProt P05771); experiment: KinaseProfiler off-target kinase profiling; format: biochemical; details: 10 μM, ATP near Km
Procedure: as §1

Flt1 = Flt1 (Homo sapiens (Human), UniProt P17948); experiment: KinaseProfiler off-target kinase profiling; format: biochemical; details: 10 μM, ATP near Km
Procedure: as §1

Rsk3 = Rsk3 (Homo sapiens (Human), UniProt Q15349); experiment: KinaseProfiler off-target kinase profiling; format: biochemical; details: 10 μM, ATP near Km
Procedure: as §1

PTK5 = PTK5 (Homo sapiens (Human), UniProt P42685); experiment: KinaseProfiler off-target kinase profiling; format: biochemical; details: 10 μM, ATP near Km
Procedure: as §1

NLK = NLK (Homo sapiens (Human), UniProt Q9UBE8); experiment: KinaseProfiler off-target kinase profiling; format: biochemical; details: 10 μM, ATP near Km
Procedure: as §1

SRPK1 = SRPK1 (Homo sapiens (Human), UniProt Q96SB4); experiment: KinaseProfiler off-target kinase profiling; format: biochemical; details: 10 μM, ATP near Km
Sequence of SRPK1 (Q96SB4 whole entry): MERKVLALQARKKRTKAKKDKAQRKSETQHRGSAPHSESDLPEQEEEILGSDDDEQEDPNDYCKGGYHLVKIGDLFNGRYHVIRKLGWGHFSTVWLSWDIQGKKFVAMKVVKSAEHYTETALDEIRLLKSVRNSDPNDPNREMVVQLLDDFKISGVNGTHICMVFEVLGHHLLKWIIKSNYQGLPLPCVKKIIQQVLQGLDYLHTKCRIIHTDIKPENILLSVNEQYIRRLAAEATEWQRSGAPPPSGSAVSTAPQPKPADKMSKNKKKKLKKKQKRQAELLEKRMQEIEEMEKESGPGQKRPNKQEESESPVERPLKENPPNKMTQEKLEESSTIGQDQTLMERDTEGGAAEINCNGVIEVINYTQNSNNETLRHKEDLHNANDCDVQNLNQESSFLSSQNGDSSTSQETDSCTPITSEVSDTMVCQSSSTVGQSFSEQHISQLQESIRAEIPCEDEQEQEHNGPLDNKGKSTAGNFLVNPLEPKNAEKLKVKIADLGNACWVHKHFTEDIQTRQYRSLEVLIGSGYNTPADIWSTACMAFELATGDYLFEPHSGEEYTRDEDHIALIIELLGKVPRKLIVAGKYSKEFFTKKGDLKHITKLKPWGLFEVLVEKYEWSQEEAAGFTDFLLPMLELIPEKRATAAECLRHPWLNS
Procedure: as §1

GRK7 = GRK7 (Homo sapiens (Human), UniProt Q8WTQ7); experiment: KinaseProfiler off-target kinase profiling; format: biochemical; details: 10 μM, ATP near Km
Sequence of GRK7 (Q8WTQ7 whole entry): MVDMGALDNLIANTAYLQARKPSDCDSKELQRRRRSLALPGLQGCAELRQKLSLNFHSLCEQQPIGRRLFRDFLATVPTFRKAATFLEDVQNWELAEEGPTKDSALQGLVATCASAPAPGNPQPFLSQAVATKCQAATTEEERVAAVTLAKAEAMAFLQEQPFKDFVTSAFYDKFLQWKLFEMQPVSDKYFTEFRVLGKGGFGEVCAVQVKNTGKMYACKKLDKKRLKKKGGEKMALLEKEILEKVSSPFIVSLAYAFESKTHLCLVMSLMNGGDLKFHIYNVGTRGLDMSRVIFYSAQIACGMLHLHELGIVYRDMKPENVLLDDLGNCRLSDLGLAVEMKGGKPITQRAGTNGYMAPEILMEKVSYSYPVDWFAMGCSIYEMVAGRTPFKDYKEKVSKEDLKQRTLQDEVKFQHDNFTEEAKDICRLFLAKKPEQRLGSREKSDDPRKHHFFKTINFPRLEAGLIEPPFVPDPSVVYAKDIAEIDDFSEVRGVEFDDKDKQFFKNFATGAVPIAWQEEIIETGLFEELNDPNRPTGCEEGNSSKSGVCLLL
Procedure: as §1

PrKX = PrKX (Homo sapiens (Human), UniProt P51817); experiment: KinaseProfiler off-target kinase profiling; format: biochemical; details: 10 μM, ATP near Km
Procedure: as §1

BLK = experiment: KinaseProfiler off-target kinase profiling; format: biochemical; details: 10 μM, ATP near Km
Procedure: as §1

EphA5 = EphA5 (Homo sapiens (Human), UniProt P54756); experiment: KinaseProfiler off-target kinase profiling; format: biochemical; details: 10 μM, ATP near Km
Procedure: as §1

NEK7 = NEK7 (Homo sapiens (Human), UniProt Q8TDX7); experiment: KinaseProfiler off-target kinase profiling; format: biochemical; details: 10 μM, ATP near Km
Procedure: as §1

MLK1 = MLK1 (Homo sapiens (Human), UniProt P80192); experiment: KinaseProfiler off-target kinase profiling; format: biochemical; details: 10 μM, ATP near Km
Procedure: as §1

EphB4 = EphB4 (Homo sapiens (Human), UniProt P54760); experiment: KinaseProfiler off-target kinase profiling; format: biochemical; details: 10 μM, ATP near Km
Procedure: as §1

ARK5 = ARK5 (Homo sapiens (Human), UniProt O60285); experiment: KinaseProfiler off-target kinase profiling; format: biochemical; details: 10 μM, ATP near Km
Procedure: as §1

Haspin = Haspin (Homo sapiens (Human), UniProt Q8TF76); experiment: KinaseProfiler off-target kinase profiling; format: biochemical; details: 10 μM, ATP near Km
Sequence of Haspin (Q8TF76 whole entry): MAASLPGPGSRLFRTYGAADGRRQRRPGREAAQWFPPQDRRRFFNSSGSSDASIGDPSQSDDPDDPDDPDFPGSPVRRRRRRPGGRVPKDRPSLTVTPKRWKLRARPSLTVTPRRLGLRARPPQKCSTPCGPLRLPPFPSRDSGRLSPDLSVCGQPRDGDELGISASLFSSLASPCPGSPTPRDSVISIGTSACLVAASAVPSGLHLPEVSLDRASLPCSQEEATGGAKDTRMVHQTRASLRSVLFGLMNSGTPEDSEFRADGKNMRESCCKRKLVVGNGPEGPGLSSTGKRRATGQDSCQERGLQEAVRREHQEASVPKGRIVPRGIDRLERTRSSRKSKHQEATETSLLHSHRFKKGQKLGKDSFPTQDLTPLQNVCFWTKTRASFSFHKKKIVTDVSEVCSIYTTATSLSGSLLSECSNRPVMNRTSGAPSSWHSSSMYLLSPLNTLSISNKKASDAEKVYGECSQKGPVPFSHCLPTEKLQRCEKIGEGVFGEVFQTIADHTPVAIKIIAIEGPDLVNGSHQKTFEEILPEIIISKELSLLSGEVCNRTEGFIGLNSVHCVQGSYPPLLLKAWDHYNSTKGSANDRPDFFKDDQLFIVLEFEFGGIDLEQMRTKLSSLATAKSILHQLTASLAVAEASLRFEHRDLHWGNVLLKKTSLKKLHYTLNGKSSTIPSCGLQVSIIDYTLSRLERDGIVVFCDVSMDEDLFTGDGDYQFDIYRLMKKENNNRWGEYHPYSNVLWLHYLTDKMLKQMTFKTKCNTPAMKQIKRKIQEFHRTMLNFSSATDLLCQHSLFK
Procedure: as §1

ULK3 = ULK3 (Homo sapiens (Human), UniProt Q6PHR2); experiment: KinaseProfiler off-target kinase profiling; format: biochemical; details: 10 μM, ATP near Km
Procedure: as §1

FGFR1 = FGFR1 (Homo sapiens (Human), UniProt P11362); experiment: KinaseProfiler off-target kinase profiling; format: biochemical; details: 10 μM, ATP near Km
Procedure: as §1

TBK1 = TBK1 (Homo sapiens (Human), UniProt Q9UHD2); experiment: KinaseProfiler off-target kinase profiling; format: biochemical; details: 10 μM, ATP near Km
Procedure: as §1

AKT3 = AKT3 (Homo sapiens (Human), UniProt Q9Y243); experiment: KinaseProfiler off-target kinase profiling; format: biochemical; details: 10 μM, ATP near Km
Sequence of AKT3 (Q9Y243 whole entry): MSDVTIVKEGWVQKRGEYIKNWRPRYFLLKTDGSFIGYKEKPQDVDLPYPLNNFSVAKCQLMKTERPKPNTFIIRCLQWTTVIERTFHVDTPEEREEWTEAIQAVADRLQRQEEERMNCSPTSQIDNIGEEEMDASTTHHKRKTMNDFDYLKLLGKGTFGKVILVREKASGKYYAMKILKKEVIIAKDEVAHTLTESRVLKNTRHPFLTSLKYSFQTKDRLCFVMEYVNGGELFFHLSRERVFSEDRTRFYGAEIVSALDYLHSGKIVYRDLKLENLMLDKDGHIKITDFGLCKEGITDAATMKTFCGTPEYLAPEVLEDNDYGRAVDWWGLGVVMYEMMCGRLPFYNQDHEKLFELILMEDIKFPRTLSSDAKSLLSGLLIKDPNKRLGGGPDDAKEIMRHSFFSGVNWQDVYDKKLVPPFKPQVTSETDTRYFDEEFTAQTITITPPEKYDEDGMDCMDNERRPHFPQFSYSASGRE
Procedure: as §1

CDK9/cyclinT1 = CDK9/cyclinT1 (Homo sapiens (Human), UniProt P50750); experiment: KinaseProfiler off-target kinase profiling; format: biochemical; details: 10 μM, ATP near Km
Sequence of CDK9/cyclinT1 (P50750 whole entry): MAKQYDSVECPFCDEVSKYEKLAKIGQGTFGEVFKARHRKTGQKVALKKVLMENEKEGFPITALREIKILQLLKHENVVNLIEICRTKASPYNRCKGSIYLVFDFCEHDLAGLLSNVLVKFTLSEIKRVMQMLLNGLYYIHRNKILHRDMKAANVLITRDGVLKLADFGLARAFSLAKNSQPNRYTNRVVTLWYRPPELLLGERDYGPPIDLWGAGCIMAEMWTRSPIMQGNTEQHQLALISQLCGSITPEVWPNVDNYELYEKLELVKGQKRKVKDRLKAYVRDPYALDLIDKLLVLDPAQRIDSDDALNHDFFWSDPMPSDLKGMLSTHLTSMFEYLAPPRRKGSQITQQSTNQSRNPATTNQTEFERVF
Sequence of CDK9/cyclinT1 (O60563 whole entry partner): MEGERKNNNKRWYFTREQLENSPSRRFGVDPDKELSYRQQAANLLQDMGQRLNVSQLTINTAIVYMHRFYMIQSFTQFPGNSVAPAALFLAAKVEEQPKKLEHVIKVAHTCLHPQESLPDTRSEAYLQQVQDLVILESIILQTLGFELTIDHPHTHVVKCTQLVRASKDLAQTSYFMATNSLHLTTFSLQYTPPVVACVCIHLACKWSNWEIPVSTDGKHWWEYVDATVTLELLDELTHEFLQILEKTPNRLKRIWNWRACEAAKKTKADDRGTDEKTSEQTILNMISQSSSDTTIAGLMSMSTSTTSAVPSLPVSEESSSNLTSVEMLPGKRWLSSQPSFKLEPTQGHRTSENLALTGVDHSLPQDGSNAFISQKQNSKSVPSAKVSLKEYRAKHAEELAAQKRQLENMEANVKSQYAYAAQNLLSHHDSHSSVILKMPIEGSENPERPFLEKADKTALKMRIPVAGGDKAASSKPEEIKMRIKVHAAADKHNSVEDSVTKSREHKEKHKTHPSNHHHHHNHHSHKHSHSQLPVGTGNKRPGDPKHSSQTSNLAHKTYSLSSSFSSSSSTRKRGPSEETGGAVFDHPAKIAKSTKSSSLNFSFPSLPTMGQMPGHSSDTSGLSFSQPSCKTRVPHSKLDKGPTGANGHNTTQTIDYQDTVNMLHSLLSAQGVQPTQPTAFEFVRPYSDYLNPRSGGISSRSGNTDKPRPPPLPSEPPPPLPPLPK
Procedure: as §1

WNK2 = WNK2 (Homo sapiens (Human), UniProt Q9Y3S1); experiment: KinaseProfiler off-target kinase profiling; format: biochemical; details: 10 μM, ATP near Km
Procedure: as §1

MINK = MINK (Homo sapiens (Human), UniProt Q8N4C8); experiment: KinaseProfiler off-target kinase profiling; format: biochemical; details: 10 μM, ATP near Km
Procedure: as §1

ZAP-70 = ZAP-70 (Homo sapiens (Human), UniProt P43403); experiment: KinaseProfiler off-target kinase profiling; format: biochemical; details: 10 μM, ATP near Km
Procedure: as §1

pIC50 [1] | Avg POC (PKCzeta) [POC] | Avg POC (HIPK2) [POC] | Avg POC (NEK11) [POC] | Avg POC (GSK3beta) [POC] | Avg POC (MYLK) [POC] | Avg POC (Lck) [POC] | Avg POC (MARK2) [POC] | Avg POC (FGFR4) [POC] | Avg POC (ITK) [POC] | Avg POC (PKCbetaI) [POC] | Avg POC (Flt1) [POC] | Avg POC (Rsk3) [POC] | Avg POC (PTK5) [POC] | Avg POC (NLK) [POC] | Avg POC (SRPK1) [POC] | Avg POC (GRK7) [POC] | Avg POC (PrKX) [POC] | Avg POC (BLK) [POC] | Avg POC (EphA5) [POC] | Compound | also measured
> 7.00 | 100 | 95 | 97 | 108 | 86.5 | 113 | 90 | 105.5 | 111 | 95 | 86 | 98 | 108 | 111.5 | 97.5 | 104 | 110.5 | 92 | 102.5 | COCCN1C[C@@H](NC(=O)Nc2c(C)c(-c3ccnc(C)c3)nn2-c2ccccc2)[C@H](c2ccc(F)c(F)c2)C1 [Example 2, 1-((3S,4R)-4-(3,4-difluorophenyl)-1-(2-methoxyethyl)pyrrolidin-3-yl)-3-(4-methyl-3-(2-methylpyridin-4-yl)-1-phenyl-1H-pyrazol-5-yl)urea] | Avg POC (NEK7): 117 POC; Avg POC (MLK1): 103.5 POC; Avg POC (EphB4): 104 POC; Avg POC (ARK5): 89 POC; Avg POC (Haspin): 71.5 POC; Avg POC (ULK3): 100 POC; Avg POC (FGFR1): 106.5 POC; Avg POC (TBK1): 116.5 POC; Avg POC (AKT3): 110 POC; Avg POC (CDK9/cyclinT1): 104 POC; Avg POC (WNK2): 98 POC; Avg POC (MINK): 98 POC; Avg POC (ZAP-70): 93 POC
> 7.00 | 99.5 | 99 | 91 | 114.5 | 101.5 | 112.5 | 99.5 | 110 | 101 | 101 | 81 | 96 | 91 | 108.5 | 109.5 | 97 | 94 | 91.5 | 101.5 | COCCN1C[C@@H](NC(=O)Nc2c(C)c(-c3cnc(C)nc3)nn2-c2ccccc2)[C@H](c2cc(F)cc(F)c2)C1 [Example 14, 1-((3S,4R)-4-(3,5-difluorophenyl)-1-(2-methoxyethyl)pyrrolidin-3-yl)-3-(4-methyl-3-(2-methylpyrimidin-5-yl)-1-phenyl-1H-pyrazol-5-yl)urea] | Avg POC (NEK7): 106.5 POC; Avg POC (MLK1): 102 POC; Avg POC (EphB4): 96 POC; Avg POC (ARK5): 85 POC; Avg POC (Haspin): 96 POC; Avg POC (ULK3): 98 POC; Avg POC (FGFR1): 101.5 POC; Avg POC (TBK1): 103 POC; Avg POC (AKT3): 104 POC; Avg POC (CDK9/cyclinT1): 104 POC; Avg POC (WNK2): 99.5 POC; Avg POC (MINK): 89.5 POC; Avg POC (ZAP-70): 101 POC
